Assay results: patent US10316056B2, “Chemical compounds and use thereof for improving muscular quality” (BIOPHYTIS, priority 2014, dated 2019)

Legend:
[1] = system: myostatin gene expression in C2C12 cells; assay: Inhibition of myostatin expression in C2C12 cells (qPCR); assay type: cell-based; conditions: Mus musculus, percentage myostatin gene expression in cells in contact with the compounds related to control cells, C2C12, 6 h
Description: After several experiments in which the C2C12 cells differentiated into myotubes were incubated in the presence of IGF-1 or 20E for 2 h 30 or 6 h, two screening tests were developed. Thus, the phosphorylation of the S6 protein kinase and the expression of the myostatin gene were studied in order to determine their modulation by a growth hormone or an ecdysone and to characterize these modulations from a statistical point of view. The C2C12 myoblast cells (ATCC CRL-1772) are seeded into 24-well plates at a density of 30 000 cells per well and cultured in a DMEM medium containing glucose in a proportion of 4.5 g/l and supplemented with fetal calf serum (10%) and with antibiotics (penicillin and streptomycin). Forty-eight hours later, the myoblasts are induced to differentiate by partial serum depletion (2% instead of 10%) for 5 days. The cells are then placed in a medium which is glucose-depleted (DMEM containing 1 g/l of glucose) and serum-free in the presence of the test molecules or of the references (100 ng/ml IGF-1 or 10 μ[…]) for 6 h. At the end of the experiment, the messenger RNAs (mRNAs) are extracted using the conventional methodology based on phenol and chloroform. Briefly, the cells are lysed in a Trizol solution (Sigma T9424) containing a strong acid and phenol. The mRNAs are separated from the proteins by addition of chloroform and then centrifugation. They are then precipitated from isopropanol and then suspended at a concentration of 1 μg/μl in an […] ultrapure water. 1 μg of mRNA is then converted by reverse transcription into complementary DNA by the AMV enzyme in the presence of a primer and of a mixture of nucleotides according to the protocol given by the supplier (Applied Biosystems 4368814). […] The qPCRs are carried out on a 7900HT Fast real-Time PCR detection system (Applied Biosystems). The programming conditions are standard and consist of 1 cycle at 95° C. for 15 min, followed by 40 cycles at 95° C. for 15 s and at 60° C. for 1 min and the program ends with a melt curve step between 60° C. and 95° C. […] Fluorescent probes bind to the double-stranded DNA and are fluorescent only once bound to the DNA. A fluorescence threshold is established by the machine's program. When the amount of DNA allows the fluorescent probe to exceed this threshold, a PCR cycle number, called “Ct” for “Cycle Threshold”, is obtained. It is this value which forms the basis of the calculations to quantify the DNA relatively. A ratio R is established between the amount of starting DNA of a sample and that of a control, which has not undergone treatment (i.e. […] R=2^-ΔΔCt).

[2] = system: S6 kinase (S6K1) phosphorylation in C2C12 cells; assay: Phosphorylation of the S6 kinase in C2C12 cells (ELISA pS6K T389), protein synthesis; assay type: cell-based, mouse; conditions: Mus musculus, C2C12, 2 h; for activity at 10 µM: read-out: Protein synthesis (percentage increase in S6K phosphorylation in muscle cells); for activity: test compounds and 20E reference (10 μM), read-out: S6K1 phosphorylation level
Description: After several experiments in which the C2C12 cells differentiated into myotubes were incubated in the presence of IGF-1 or 20E for 2 h 30 or 6 h, two screening tests were developed. Thus, the phosphorylation of the S6 protein kinase and the expression of the myostatin gene were studied in order to determine their modulation by a growth hormone or an ecdysone and to characterize these modulations from a statistical point of view.
The C2C12 myoblast cells (ATCC CRL-1772) are seeded into 6-well plates at a density of 170 000 cells per well and cultured in a DMEM medium containing glucose in a proportion of 4.5 g/l and supplemented with fetal calf serum (10%) and with antibiotics (penicillin and streptomycin). Forty-eight hours later, the myoblasts are induced to differentiate by partial serum depletion (2% instead of 10%) for 5 days. The cells are then placed in a medium which is glucose-depleted (DMEM containing 1 g/l of glucose) and serum-free in the presence of the test molecules or of the references (100 ng/ml IGF-1 or 10 μM 20E) for 2 h. At the end of the experiment, the cells are lysed in a commercial lysis buffer (Invitrogen FNN0011) supplemented with a commercial mixture of anti-proteases (Roche 05056489001). After centrifugation, the cytoplasmic fraction containing the soluble proteins is kept and the protein concentration is determined using a commercial kit (Biorad 500-0114), the principle of which is composed of assaying by the Lowry method. The assaying of the S6 kinase phosphorylation is carried out using a commercial ELISA (Enzyme Linked ImmunoSorbent Assay) kit (Cell signaling 7063). Briefly, 50 μg of protein lysate are deposited in the wells of a 96-well microplate and incubated overnight at 4° C. with the solution of antigen specific for the pS6 kinase threonine 389 antibody. The binding of the antigen to the bottom of the wells is done electrostatically. The solution of antibody to be assayed (pS6K T389) is then incubated at 37° C. in the wells for 2 hours. The antibodies bind specifically to the antigen. The wells are then washed with washing buffer in order to remove the antigen-specific primary antibodies to be assayed which are in excess. The third step consists in binding the detection antibody. The solution of detection antibodies is incubated at 37° C. in the wells for 1 hour. The wells are then washed in order to remove the excess detection antibodies. It should be noted that the detection antibodies are coupled to an enzyme which, in the presence of its substrate, converts it into a reaction product that can be detected and measured by virtue of the appearance of a coloration. […] The appearance of a blue coloration in the substrate indicates the presence of the antibody to be assayed. In order to prevent any saturation phenomenon, a stop solution (generally containing […]) is added and brings about a change in coloration, which goes from blue to yellow. The strength thereof is proportional to the amount of enzyme present and thus to the concentration of antibody sought. The strength of the signal is measured using spectrophotometry at a wavelength of 450 nm.

Compound	mrna remaining at 10 µM [1] [%]	activity at 10 µM [2] [%]	activity [2] [%]
CC([C@H]1CC[C@@]2(O)C3=CC(=O)[C@@H]4C[C@@H](O)[C@@H](O)C[C@]4(C)C3CC[C@]12C)N(CC(F)F)C(=O)c1ccco1 (stereo partly drawn) [Compound 67, N-(2,2-difluoroethyl)-N-[1-[(2S,3R,5R,10R,13R,14S,17S)-2,3,14-trihydroxy-10,13-dimethyl-6-oxo-2,3,4,5,9,11,12,15,16,17-decahydro-1H-cyclopenta[a]phenanthren-17-yl]ethyl]furan-2-carboxamide]	< 70	> 130	130 to 140
C[C@]12C[C@H](O)[C@H](O)C[C@H]1C(=O)C=C1C2CC[C@]2(C)[C@@H](C(=O)CSCCO)CC[C@@]12O (stereo partly drawn) [Compound 94, (2S,3R,5R,10R,13R,14S,17S)-2,3,14-trihydroxy-17-[2-(2-hydroxyethylsulfanyl)acetyl]-10,13-dimethyl-2,3,4,5,9,11,12,15,16,17-decahydro-1H-cyclopenta[a]phenanthren-6-one]	< 70	> 130	130 to 140
C=CCCC(=O)N(CCOC)C(C)[C@H]1CC[C@@]2(O)C3=CC(=O)[C@@H]4C[C@@H](O)[C@@H](O)C[C@]4(C)C3CC[C@]12C (stereo partly drawn) [Compound 52, N-(2-methoxyethyl)-N-[1-[(2S,3R,5R,10R,13R,14S,17S)-2,3,14-trihydroxy-10,13-dimethyl-6-oxo-2,3,4,5,9,11,12,15,16,17-decahydro-1H-cyclopenta[a]phenanthren-17-yl]ethyl]pent-4-enamide]	< 70	110 to 129	~120
C[C@]12C[C@H](O)[C@H](O)C[C@H]1C(=O)C=C1C2CC[C@]2(C)[C@@H](C(=O)CN3CCC(O)C3)CC[C@@]12O (stereo partly drawn) [Compound 86, (2S,3R,5R,10R,13R,14S,17S)-2,3,14-trihydroxy-17-[2-(3-hydroxypyrrolidin-1-yl)acetyl]-10,13-dimethyl-2,3,4,5,9,11,12,15,16,17-decahydro-1H-cyclopenta[a]phenanthren-6-one]	< 70	> 130	130 to 140
CCOC(=O)CSCC(=O)[C@H]1CC[C@@]2(O)C3=CC(=O)[C@@H]4C[C@@H](O)[C@@H](O)C[C@]4(C)C3CC[C@]12C (stereo partly drawn) [Compound 92, Ethyl 2-[2-oxo-2-[(2S,3R,5R,10R,13R,14S,17S)-2,3,14-trihydroxy-10,13-dimethyl-6-oxo-2,3,4,5,9,11,12,15,16,17-decahydro-1H-cyclopenta[a]phenanthren-17-yl]ethyl]sulfanylacetate]	< 70	110 to 129	~120
COCCN(C)C(C)[C@H]1CC[C@@]2(O)C3=CC(=O)[C@@H]4C[C@@H](O)[C@@H](O)C[C@]4(C)C3CC[C@]12C (stereo partly drawn) [Compound 76, (2S,3R,5R,10R,13R,14S,17S)-2,3,14-trihydroxy-17-[1-(2-methoxyethyl(methyl)amino)ethyl]-10,13-dimethyl-2,3,4,5,9,11,12,15,16,17-decahydro-1H-cyclopenta[a]phenanthren-6-one]	< 70	110 to 129	~120
C=CCCO/N=C(/C)[C@H]1CC[C@@]2(O)C3=CC(=O)[C@@H]4C[C@@H](O)[C@@H](O)C[C@]4(C)C3CC[C@]12C (stereo partly drawn) [Compound 28, (2S,3R,5R,10R,13R,14S,17S)-17-(N-but-3-enoxy-C-methylcarbonimidoyl)-2,3,14-trihydroxy-10,13-dimethyl-2,3,4,5,9,11,12,15,16,17-decahydro-1H-cyclopenta[a]phenanthren-6-one]	< 70	> 130	130 to 140
COCC(=O)N(CC1CCCO1)C(C)[C@H]1CC[C@@]2(O)C3=CC(=O)[C@@H]4C[C@@H](O)[C@@H](O)C[C@]4(C)C3CC[C@]12C (stereo partly drawn) [Compound 62, 2-methoxy-N-(tetrahydrofuran-2-ylmethyl)-N-[1-[(2S,3R,5R,10R,13R,14S,17S)-2,3,14-trihydroxy-10,13-dimethyl-6-oxo-2,3,4,5,9,11,12,15,16,17-decahydro-1H-cyclopenta[a]phenanthren-17-yl]ethyl]acetamide]	< 70	> 130	130 to 140
C[C@]12C[C@H](O)[C@H](O)C[C@H]1C(=O)C=C1C2CC[C@]2(C)[C@@H](C(=O)CN3CCC(CCO)CC3)CC[C@@]12O (stereo partly drawn) [Compound 89, (2S,3R,5R,10R,13R,14S,17S)-2,3,14-trihydroxy-17-[2-[4-(2-hydroxyethyl)-1-piperidyl]acetyl]-10,13-dimethyl-2,3,4,5,9,11,12,15,16,17-decahydro-1H-cyclopenta[a]phenanthren-6-one]	< 70	> 130	130 to 140
COCCNC(C)[C@H]1CC[C@@]2(O)C3=CC(=O)[C@@H]4C[C@@H](O)[C@@H](O)C[C@]4(C)C3CC[C@]12C (stereo partly drawn) [Compound 42, (2S,3R,5R,10R,13R,14S,17S)-2,3,14-trihydroxy-17-[1-(2-methoxyethylamino)ethyl]-10,13-dimethyl-2,3,4,5,9,11,12,15,16,17-decahydro-1H-cyclopenta[a]phenanthren-6-one]	–	> 130	130 to 140
COCCN(C(=O)COC)C(C)[C@H]1CC[C@@]2(O)C3=CC(=O)[C@@H]4C[C@@H](O)[C@@H](O)C[C@]4(C)C3CC[C@]12C (stereo partly drawn) [Compound 41, 2-methoxy-N-(2-methoxyethyl)-N-[1-[(2S,3R,5R,10R,13R,14S,17S)-2,3,14-trihydroxy-10,13-dimethyl-6-oxo-2,3,4,5,9,11,12,15,16,17-decahydro-1H-cyclopenta[a]phenanthren-17-yl]ethyl]acetamide]	< 70	110 to 129	~120
COC(CN(C(=O)c1ccco1)C(C)[C@H]1CC[C@@]2(O)C3=CC(=O)[C@@H]4C[C@@H](O)[C@@H](O)C[C@]4(C)C3CC[C@]12C)OC (stereo partly drawn) [Compound 60, N-(2,2-dimethoxyethyl)-N-[1-[(2S,3R,5R,10R,13R,14S,17S)-2,3,14-trihydroxy-10,13-dimethyl-6-oxo-2,3,4,5,9,11,12,15,16,17-decahydro-1H-cyclopenta[a]phenanthren-17-yl]ethyl]furan-2-carboxamide]	71 to 85	–	–
